Holding throughout (assay): coupled HPLC assay with pea UDP-sugar pyrophosphorylase
One series has as its target T1, DrGKUP (Danio rerio, UniProt F6NZ60).
T1 construct: gene gkup; full length, 619 residues, about 70 kDa; StrepII-tag, made in Nicotiana benthamiana leaves
T1 sequence (F6NZ60 1-619): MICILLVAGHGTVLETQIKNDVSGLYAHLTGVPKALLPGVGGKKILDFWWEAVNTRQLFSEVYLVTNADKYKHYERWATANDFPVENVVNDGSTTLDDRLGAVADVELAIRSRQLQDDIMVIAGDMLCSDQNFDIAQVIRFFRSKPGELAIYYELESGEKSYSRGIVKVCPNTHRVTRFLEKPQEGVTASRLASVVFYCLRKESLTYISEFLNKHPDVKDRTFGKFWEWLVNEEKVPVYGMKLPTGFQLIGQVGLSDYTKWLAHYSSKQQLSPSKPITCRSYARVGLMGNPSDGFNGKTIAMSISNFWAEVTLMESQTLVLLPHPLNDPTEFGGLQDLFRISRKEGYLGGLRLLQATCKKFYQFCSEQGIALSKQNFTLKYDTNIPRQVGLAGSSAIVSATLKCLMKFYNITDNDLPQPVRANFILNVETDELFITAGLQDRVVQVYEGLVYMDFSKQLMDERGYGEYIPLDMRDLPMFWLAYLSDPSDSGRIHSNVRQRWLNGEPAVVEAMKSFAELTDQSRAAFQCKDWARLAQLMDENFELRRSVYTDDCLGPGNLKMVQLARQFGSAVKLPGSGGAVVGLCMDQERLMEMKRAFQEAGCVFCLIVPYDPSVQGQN
In kind it is biochemical. As to conditions: UTP, 4 mM MgCl2, 50 mM MOPS-KOH pH 7.5, 35°C.

Another series deals with T2, XtGKUP (Xenopus tropicalis, UniProt A0A6I8PZF0).
T2 construct: gene XB5896631; bifunctional enzyme cloned from tadpole first-strand cDNA; StrepII-tag, made in Nicotiana benthamiana leaves
T2 sequence (A0A6I8PZF0 1-619): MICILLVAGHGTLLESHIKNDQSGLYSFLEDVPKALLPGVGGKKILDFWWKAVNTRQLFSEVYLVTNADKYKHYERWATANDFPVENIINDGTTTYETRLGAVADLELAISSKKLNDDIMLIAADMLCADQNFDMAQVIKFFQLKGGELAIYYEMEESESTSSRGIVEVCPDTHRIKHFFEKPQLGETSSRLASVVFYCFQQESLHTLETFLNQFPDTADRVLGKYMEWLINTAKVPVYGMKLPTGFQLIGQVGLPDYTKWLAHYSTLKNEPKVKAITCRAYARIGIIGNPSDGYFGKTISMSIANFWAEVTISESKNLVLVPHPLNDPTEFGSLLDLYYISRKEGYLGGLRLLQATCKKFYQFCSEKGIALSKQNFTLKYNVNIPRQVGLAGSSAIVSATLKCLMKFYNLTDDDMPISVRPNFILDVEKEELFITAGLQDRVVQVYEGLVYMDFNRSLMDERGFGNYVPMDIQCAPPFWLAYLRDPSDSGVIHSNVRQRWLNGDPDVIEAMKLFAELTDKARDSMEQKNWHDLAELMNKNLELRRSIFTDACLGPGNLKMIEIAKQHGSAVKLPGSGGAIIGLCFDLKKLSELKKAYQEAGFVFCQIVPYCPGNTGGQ
Type of series: biochemical. As to conditions: ATP, UTP, 4 mM MgCl2, 50 mM MOPS-KOH pH 7.5, 35°C.

Substrate in series [1]: Nc1ncnc2c1ncn2[C@@H]1O[C@H](COP(=O)(O)OP(=O)(O)OP(=O)(O)O)[C@@H](O)[C@H]1O
In kind it is biochemical, Danio rerio. As to conditions: GlcA and UTP, 4 mM MgCl2, 50 mM MOPS-KOH pH 7.5, 35°C, ATP 0.01-1.4 mM. The text has this: coupled HPLC assay with pea UDP-sugar pyrophosphorylase on DrGK

For `Nc1ncnc2c1ncn2[C@@H]1O[C@H](COP(=O)(O)OP(=O)(O)OP(=O)(O)O)[C@@H](O)[C@H]1O` [ATP], the “coupled HPLC assay with pea UDP-sugar pyrophosphorylase” value on DrGKUP (GlcA) was “The product is dependent on the presence of ATP, UTP and GlcA”.

On to `O=C(O)[C@H]1OC(O)[C@H](O)[C@@H](O)[C@@H]1O` (stereo partly drawn) [D-glucuronic acid], for which the entries for the “coupled HPLC assay with pea UDP-sugar pyrophosphorylase” value at DrGKUP (ATP) and on XtGKUP were “The recombinant full length DrGKUP as well as the DrGK alone catalyzes the phosphorylation of GlcA” and “we can confirm the glucuronokinase activity for the Xenopus enzyme”, respectively.

B1: DrGK (Danio rerio) (protein)
chain: AHYSSKQQLSPSKPITCRSYARVGLMGNPSDGFNGKTIAMSISNFWAEVTLMESQTLVLLPHPLNDPTEFGGLQDLFRISRKEGYLGGLRLLQATCKKFYQFCSEQGIALSKQNFTLKYDTNIPRQVGLAGSSAIVSATLKCLMKFYNITDNDLPQPVRANFILNVETDELFITAGLQDRVVQVYEGLVYMDFSKQLMDERGYGEYIPLDMRDLPMFWLAYLSDPSDSGRIHSNVRQRWLNGEPAVVEAMKSFAELTDQSRAAFQCKDWARLAQLMDENFELRRSVYTDDCLGPGNLKMVQLARQFGSAVKLPGSGGAVVGLCMDQERLMEMKRAFQEAGCVFCLIVPYDPSVQGQN
notes: C-terminal glucuronokinase (GHMP kinase) domain only, 357 residues, 40 kDa, of the 619-residue DrGKUP (N-terminal ~260-residue pyrophosphorylase domain removed); StrepII-tag; made in Nicotiana benthamiana leaves
Consider B1, for which, in series [1], the Km was determined as 59.3 ± 9.1 µM and the kcat worked out at 1.3 s⁻¹.

Source of the values: paper PMC3938481, “Molecular Cloning of a Novel Glucuronokinase/Putative Pyrophosphorylase from Zebrafish Acting in an UDP-Glucuronic Acid Salvage Pathway” (PLoS ONE, 2014).
